Measurements taken from patent publication US8614209B2, “Amido-thiophene compounds and their use” (The University of Edinburgh, priority 2008, dated 2013).

These molecules were tested against T1, human 11β-HSD2 (Homo sapiens, UniProt P80365) (assay: Cellular in vitro 11β-HSD2 enzyme inhibition assay (CHO cells, TLC/phosphoimager)). Conditions: CHO cells stably transfected with human 11β-HSD2; Table 1.
T1 construct: CHO cells stably transfected with the full-length gene coding for human 11β-HSD2 were used; expressed in transfected cells; host or cells: CHO
T1 sequence (P80365 1-405): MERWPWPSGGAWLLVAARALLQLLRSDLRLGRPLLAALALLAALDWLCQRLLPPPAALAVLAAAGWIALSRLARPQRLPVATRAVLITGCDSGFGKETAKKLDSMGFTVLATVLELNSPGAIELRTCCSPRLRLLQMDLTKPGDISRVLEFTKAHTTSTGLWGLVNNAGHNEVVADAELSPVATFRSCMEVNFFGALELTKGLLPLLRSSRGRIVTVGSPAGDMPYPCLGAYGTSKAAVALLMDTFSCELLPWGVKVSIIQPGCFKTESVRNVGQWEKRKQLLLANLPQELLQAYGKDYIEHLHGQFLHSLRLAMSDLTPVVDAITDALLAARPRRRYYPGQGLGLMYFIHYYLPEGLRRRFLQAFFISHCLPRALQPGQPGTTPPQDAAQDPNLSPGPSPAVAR
Assay type: cell-based
Procedure: Cellular In Vitro 11β-HSD2 Enzyme Inhibition Assay
For measurement of inhibition of 11β-HSD2, CHO cells stably transfected with the full-length gene coding for human 11β-HSD2 were used. Assays were carried out in 96-well microplates containing 1×10^5 cells/well. Controls and compounds were plated as above, so that the final DMSO concentration in each well was 1%.
The assay solutions were transferred to glass tubes and 20 μL ethyl acetate added to each tube. Each tube was vortexed thoroughly and the upper layer containing the tritiated steroid transferred to a fresh glass tube. The solvent was evaporated by placing the tubes in a heating block at 65° C. under a stream of Nitrogen gas. 20 μL ethanol was added to each of the dried samples and vortexed briefly. Each sample was applied to a silica TLC plate and the plate dried. The plate was placed vertically in a glass tank containing 92% chloroform:8% ethanol and the solvent allowed to rise up the plate. The plate was dried, placed in an imaging cassette, and overlayed with a tritium imaging plate for 1-2 days. The amount of enzyme inhibition in each sample was determined by measuring the intensity of the substrate and product spots using a phosphoimager.
IC50 values for inhibitors were determined as described for 118-HSD1.

IC50, > 10 µM:
O=C(c1cc(-c2ccccc2)sc1Cl)N1CCCCC1 [AA-30]
CC1(C)CC2CC(C)(CN2C(=O)c2csc(-c3ccncc3)c2)C1 (centres unmarked) [GG-01]
CC1(C)CC2CC(C)(CN2C(=O)c2cc(-c3ccccc3)sc2Cl)C1 (centres unmarked) [CC-02]
O=C(c1cc(-c2ccccn2)sc1Cl)N1CCCCCC1 [EE-12]
O=C(c1csc(-n2ccnc2)c1)N1CCCC2CCCCC21 (centres unmarked) [FF-06, (5-Imidazol-1-yl-thiophen-3-yl)-(octahydro-quinolin-1-yl)-methanone]
